A short description of data set [1]: DSC analysis of glass transition temperatures (Tg, Tg′). The data set is classed as physicochemical. The note with it: compound itself. How it is done:
Tg′ and Tg were evaluated using a PYRIS Diamond DSC. Samples for Tg′ determination were prepared by loading 50 μL of sample into a 500 μL aluminum pan, then sealing the pan using the sealing press. The thermal program used to identify Tg′ (without annealing) was: • 1. Ramp from 20° C. to −50° C. at 10° C./min • 2. Hold at −50° C. for 4 minutes • 3. Ramp from −50° C. to 20° C. at 10° C./min The thermal program used to identify Tg′ that included an annealing step was: • 1. Ramp from 20° C. to −45° C. at 10° C./min • 2. Hold at −45° C. for 10 minutes • 3. Ramp from −45° C. to −8° C. at 10° C./min • 4. Hold at −8° C. for 1 hour • 5. Ramp from −8° C. to −70° C. at 10° C./min • 6. Hold at −70° C. for 5 minutes • 7. Ramp from −70° C. to 20° C. at 10° C./min Tg′ was taken to be the midpoint of the transition.
Freeze-dried samples used in the determination of […] ramped the temperature from 25° C. to 150° C. at 10° C./min.
Background: Differential scanning calorimetry records heat flow against a reference as temperature is scanned.

A short description of data set [2]: Stability during freeze-drying by reverse-phase HPLC. Format: physicochemical. As for the experimental part: Reverse phase HPLC was used to quantify the potency and purity of; disodium 2-(N′-methyl-N′-thiobenzoyl-hydrazinocarbonyl)-1-(methyl-thiobenzoyl-hydrazono)-ethanolate following freeze-drying. The analysis was performed as detailed in the analytical method.

Each structure is given as a SMILES string. “Also recorded” adds a separate entry of the source.

We go through two compounds from patent US8623921B2, “Bis(thio-hydrazide amide) formulation” (Synta Pharmaceuticals Corp., priority 2005, dated 2014).

Turning to `CN(/N=C(\O)C/C(O)=N/N(C)C(=S)c1ccccc1)C(=S)c1ccccc1` [Structural Formula, (II)], the “Tg (glass transition temperature)” value in data set [1] is −44.7 °C.
In turn, `CN(NC(=O)CC(=O)NN(C)C(=S)c1ccccc1)C(=S)c1ccccc1` [disodium 2-(N′-methyl-N′-thiobenzoyl-hydrazinocarbonyl)-1-(methyl-thiobenzoyl-hydrazono)-ethanolate] showed a main peak purity in data set [2] (RP-HPLC after freeze-drying, on average) of 97%. For the same compound, the stability during freeze-drying result in data set [2] (reverse-phase HPLC, all freeze-drying cycles tested) is listed as “stable through all of the freeze-drying cycles tested, as no degradation products were detected; also recorded: did not adversely affect the stability”.
